The target in this experiment is T1, human PAH with the R408W mutation (Homo sapiens, UniProt P00439, R408W).
T1 construct: expressed in transfected cells
T1 sequence (P00439 1-452 R408W): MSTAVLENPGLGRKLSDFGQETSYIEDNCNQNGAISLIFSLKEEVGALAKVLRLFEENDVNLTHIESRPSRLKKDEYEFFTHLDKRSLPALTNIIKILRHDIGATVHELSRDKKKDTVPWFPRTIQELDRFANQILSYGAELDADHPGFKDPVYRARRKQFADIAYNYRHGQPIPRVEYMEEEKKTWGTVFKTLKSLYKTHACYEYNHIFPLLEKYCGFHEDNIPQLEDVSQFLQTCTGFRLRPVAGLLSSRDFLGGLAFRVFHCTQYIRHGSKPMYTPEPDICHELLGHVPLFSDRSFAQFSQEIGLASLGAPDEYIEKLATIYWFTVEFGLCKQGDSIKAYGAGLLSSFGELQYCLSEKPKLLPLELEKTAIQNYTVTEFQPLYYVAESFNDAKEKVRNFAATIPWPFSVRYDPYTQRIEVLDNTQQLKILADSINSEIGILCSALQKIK
The experiment in a line: Cell Based Phenylalanine Flux Assay. Particulars: A375 cells expressing human R408W PAH; 24 hrs compound incubation; 13C-Tyrosine by LC-MS; average where tested multiple times; read-out: AC50.

The results in this text go back to US20250171438A1 (Agios Pharmaceuticals, Inc., priority 2022, published 2025).

A value given as a limit tells only on which side of the number the result lay.

Turning to `O=C(c1nnc(-c2ccccc2)o1)N1CCc2[nH]cnc2[C@@H]1c1nc2ccccc2s1` [Example 1418, (R)-(4-(benzo[d]thiazol-2-yl)-6,7-dihydro-1H-imidazo[4,5-c]pyridin-5(4H)-yl)(5-phenyl-1,3,4-oxadiazol-2-yl)methanone], the AC50 lay within 1 to 5 µM. As for `O=C(c1nnc(-c2ccccc2)s1)N1CCc2[nH]cnc2[C@H]1c1nc2ccccc2s1` [Example 1419], the AC50 was < 0.5 µM. The result for `O=C(c1nnc(-c2ccccc2)s1)N1CCc2[nH]cnc2[C@@H]1c1nc2ccccc2s1` [Example 1420, (R)-(4-(benzo[d]thiazol-2-yl)-6,7-dihydro-1H-imidazo[4,5-c]pyridin-5(4H)-yl)(5-phenyl-1,3,4-thiadiazol-2-yl)methanone] reads > 5 µM. The result for `CC(C)(C)c1ncc(C(=O)N2CCc3[nH]cnc3[C@H]2c2nc3ccccc3s2)s1` [Example 1421] reads < 0.5 µM. The result for `CC(C)(C)c1ncc(C(=O)N2CCc3[nH]cnc3[C@@H]2c2nc3ccccc3s2)s1` [Example 1422, (R)-(4-(benzo[d]thiazol-2-yl)-6,7-dihydro-1H-imidazo[4,5-c]pyridin-5(4H)-yl)(2-(tert-butyl)thiazol-5-yl)methanone] reads 1 to 5 µM; that for `Cc1nc(-c2cnn(C(C)C)c2)oc1C(=O)N1CCc2[nH]cnc2[C@H]1c1nc2ccccc2s1` [Example 1423], < 0.5 µM.

With `Cc1nc(-c2cnn(C(C)C)c2)oc1C(=O)N1CCc2[nH]cnc2[C@@H]1c1nc2ccccc2s1` [Example 1424, (R)-(4-(benzo[d]thiazol-2-yl)-6,7-dihydro-1H-imidazo[4,5-c]pyridin-5(4H)-yl)(2-(1-isopropyl-1H-pyrazol-4-yl)-4-methyloxazol-5-yl)methanone], the AC50 lay within 1 to 5 µM. The same measure for `CC(C)(C)c1ncc(C(=O)N2CCc3[nH]cnc3[C@H]2c2nc3c(F)cccc3s2)s1` [Example 1425]: < 0.5 µM. Consider `CC(C)(C)c1ncc(C(=O)N2CCc3[nH]cnc3[C@@H]2c2nc3c(F)cccc3s2)s1` [Example 1426, (R)-(2-(tert-butyl)thiazol-5-yl)(4-(4-fluorobenzo[d]thiazol-2-yl)-6,7-dihydro-1H-imidazo[4,5-c]pyridin-5(4H)-yl)methanone], for which the AC50 was in the range of 0.5 to 1 µM. The result for `CC(C)(C)c1ncc(C(=O)N2CCc3[nH]cnc3[C@H]2c2nc3ccccc3s2)o1` [Example 1427] reads < 0.5 µM. The same measure for `CC(C)(C)c1ncc(C(=O)N2CCc3[nH]cnc3[C@@H]2c2nc3ccccc3s2)o1` [Example 1428, (R)-(4-(benzo[d]thiazol-2-yl)-6,7-dihydro-1H-imidazo[4,5-c]pyridin-5(4H)-yl)(2-(tert-butyl)oxazol-5-yl)methanone]: 0.5 to 1 µM; for `CC(C)(C)c1ncc(C(=O)N2CCc3[nH]cnc3[C@@H]2c2nc3c(F)cccc3s2)o1` [Example 1429, (R)-(2-(tert-butyl)oxazol-5-yl)(4-(4-fluorobenzo[d]thiazol-2-yl)-6,7-dihydro-1H-imidazo[4,5-c]pyridin-5(4H)-yl)methanone]: 0.5 to 1 µM. On to `CC(C)(C)c1ncc(C(=O)N2CCc3[nH]cnc3[C@H]2c2nc3c(F)cccc3s2)o1` [Example 1430], for which the AC50 was < 0.5 µM. In the case of `Cc1nc(C(C)(C)C)oc1C(=O)N1CCc2[nH]cnc2[C@H]1c1nc2ccccc2s1` [Example 1431], the AC50 was < 0.5 µM. The same measure for `Cc1nc(C(C)(C)C)oc1C(=O)N1CCc2[nH]cnc2[C@@H]1c1nc2ccccc2s1` [Example 1432, (R)-(4-(benzo[d]thiazol-2-yl)-6,7-dihydro-1H-imidazo[4,5-c]pyridin-5(4H)-yl)(2-(tert-butyl)-4-methyloxazol-5-yl)methanone]: 1 to 5 µM; for `Cc1nc(C(C)(C)C)oc1C(=O)N1CCc2[nH]cnc2[C@H]1c1nc2c(F)cccc2s1` [Example 1433]: 0.5 to 1 µM.
